Values joined by “and” are separate entries in the source; they are usually repeats but may differ in a detail not shown here. Equal entries are not always repeated.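 All cell lines were grown in 96-well plates and treated with compound for 48 hours. Abbreviation: GI50, concentration required for 50% inhibition of growth. TGI: concentration producing complete growth inhibition.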

Some test systems named below: NCI-H226 lung; TK-10 renal; OVCAR-8 ovarian; HCC-2998 colon; SR leukemia; OVCAR-3 ovarian; U251 CNS; HL-60(TB) leukemia; MDA-MB-231 breast; UACC-257 melanoma.
Experiment in all cases: NCI anticancer screen, dose series, 48 h

Take `COc1ccc2[nH]c3c(C)c4cc[n+](C)cc4c(C)c3c2c1`: the GI50 was 0.111 µM in the test on NCI-H226 lung; 12.4 µM and 24.3 µM and 5.65 µM with TK-10 renal; 0.0892 µM and 0.134 µM in the test on OVCAR-8 ovarian; 2.41 µM and 1.02 µM in the test with HCC-2998 colon; 0.246 µM in the test with OVCAR-3 ovarian; 0.0689 µM and 0.0524 µM with U251 CNS. The GI50 in the test with HL-60(TB) leukemia was 8.31 µM and 9.67 µM; in the test with MDA-MB-231 breast, 6.34 µM and 1.89 µM and 7.41 µM; in the test on UACC-257 melanoma, 6.27 µM and 5.41 µM. Further, the TGI in the test with NCI-H226 lung was 1.52 µM and 1.13 µM and 0.572 µM; in the test on TK-10 renal, 89.2 µM and > 163 µM; in the test on SR leukemia, 49.1 µM and > 209 µM; in the test with MDA-MB-231 breast it was 53 µM and 133 µM; in the test on UACC-257 melanoma, 54.5 µM [middle of 4 runs].

`Nc1c(S(=O)(=O)O)cc(Nc2cccc(S(N)(=O)=O)c2)c2c1C(=O)c1ccccc1C2=O`: the TGI in the test with NCI-H226 lung, in the test on TK-10 renal, in the test with OVCAR-8 ovarian, in the test with SR leukemia, with OVCAR-3 ovarian and in the test on U251 CNS was above 100 µM each time. The TGI with HL-60(TB) leukemia, in the test on MDA-MB-231 breast and in the test with UACC-257 melanoma was above 100 µM throughout.

`Nc1ccc(-c2ccc(Nc3cc(S(=O)(=O)O)c(N)c4c3C(=O)c3ccccc3C4=O)cc2)c(S(=O)(=O)O)c1`: the TGI in the test with NCI-H226 lung, with TK-10 renal, in the test with OVCAR-8 ovarian, in the test on HCC-2998 colon, in the test with SR leukemia and in the test on OVCAR-3 ovarian was above 100 µM each time. The TGI in the test with U251 CNS, in the test on HL-60(TB) leukemia, in the test with MDA-MB-231 breast and in the test with UACC-257 melanoma was above 100 µM throughout.

On to `COc1cc(/C=C2\CCCC3C2=Nc2ccccc2NC3c2cc(OC)c(OC)c(OC)c2)cc(OC)c1OC` (stereo not given), for which the GI50 in the test on NCI-H226 lung was 1.93 µM; in the test with TK-10 renal, 3.49 µM; in the test with OVCAR-8 ovarian, 0.4 µM; in the test on HCC-2998 colon, 2.3 µM; in the test on SR leukemia, 0.723 µM; in the test with OVCAR-3 ovarian it was 2.08 µM. In addition, the GI50 in the test on HL-60(TB) leukemia was 2.44 µM; in the test with MDA-MB-231 breast it was 2.9 µM; in the test with UACC-257 melanoma, 1.3 µM. In addition, the TGI in the test on NCI-H226 lung is 4.19 µM; in the test with TK-10 renal, 17.7 µM; in the test on OVCAR-8 ovarian it was 42.9 µM; in the test with HCC-2998 colon it was 4.81 µM; in the test on SR leukemia, 3.14 µM; with OVCAR-3 ovarian it was 6.07 µM. The TGI in the test with HL-60(TB) leukemia is 4.97 µM; in the test with MDA-MB-231 breast, 25 µM; with UACC-257 melanoma, 6.77 µM.

In the case of `CN1C(=O)N(C)C2C1NN=c1s/c(=C\c3c[nH]c4ccccc34)c(=O)n12` (stereo not given), the GI50 in the test on NCI-H226 lung was 0.143 µM; in the test with TK-10 renal, 34.7 µM; in the test on OVCAR-8 ovarian it was 0.0547 µM; with HCC-2998 colon, 0.0352 µM; in the test with SR leukemia, 0.0345 µM; with OVCAR-3 ovarian, 0.0325 µM. Further, the GI50 in the test with U251 CNS was 0.0413 µM; with HL-60(TB) leukemia, 0.0305 µM; in the test on MDA-MB-231 breast, 0.0671 µM; in the test with UACC-257 melanoma it was above 100 µM. For the same compound, the TGI in the test on NCI-H226 lung, with TK-10 renal, with OVCAR-8 ovarian, in the test on HCC-2998 colon, in the test on SR leukemia and in the test on OVCAR-3 ovarian was above 100 µM throughout. Further, the TGI in the test with U251 CNS is above 100 µM; in the test on HL-60(TB) leukemia, 0.858 µM; in the test with MDA-MB-231 breast, above 100 µM; with UACC-257 melanoma, above 100 µM.

For the compound `COc1cc(CNc2nc3cc(N)cc(N)c3nc2-c2ccccc2)cc(OC)c1OC`, the GI50 was 9.96 µM in the test with NCI-H226 lung; 6.25 µM in the test on TK-10 renal; 7 µM with OVCAR-8 ovarian; 0.897 µM in the test on SR leukemia; 1.15 µM with OVCAR-3 ovarian; 1.73 µM with U251 CNS. Also, the GI50 is 1.25 µM in the test on HL-60(TB) leukemia, 7.3 µM in the test on MDA-MB-231 breast and 3.45 µM in the test with UACC-257 melanoma. For the same compound, the TGI in the test on NCI-H226 lung is 22.4 µM; in the test with TK-10 renal it was 17.9 µM; in the test with OVCAR-8 ovarian, 14.8 µM; with SR leukemia, above 50 µM; in the test on OVCAR-3 ovarian, 3.42 µM; in the test on U251 CNS it was 6.25 µM. Further, the TGI is above 50 µM in the test on HL-60(TB) leukemia, 15.2 µM with MDA-MB-231 breast and 10.8 µM in the test on UACC-257 melanoma.

For the compound `COc1cc(-c2nc3ccccc3[nH]2)ccc1OCC(=O)N=Nc1c(O)[nH]c2ccc(Cl)cc12`, the GI50 in the test on NCI-H226 lung was 1.83 µM; in the test on TK-10 renal it was 2.58 µM; with HCC-2998 colon, 1.32 µM; in the test with SR leukemia, 0.292 µM; in the test on OVCAR-3 ovarian it was 0.96 µM; with U251 CNS, 0.468 µM. Further, the figures for the GI50 in the test with HL-60(TB) leukemia, with MDA-MB-231 breast and with UACC-257 melanoma were 1.93 µM, 0.547 µM and 1.91 µM, respectively. Further, the TGI in the test with NCI-H226 lung came to 3.74 µM; in the test on TK-10 renal, 5.77 µM; in the test on HCC-2998 colon, 2.8 µM; with SR leukemia, 1.05 µM; in the test with OVCAR-3 ovarian, 2.2 µM; in the test with U251 CNS, 1.88 µM. The TGI in the test with HL-60(TB) leukemia came to 4.42 µM; with MDA-MB-231 breast, 1.86 µM; with UACC-257 melanoma, 3.78 µM.

As for `CCC(C(=O)c1cccs1)C(O)(C(F)(F)F)C(F)(F)F` (stereo not given), the TGI in the test with NCI-H226 lung, in the test on TK-10 renal, with OVCAR-8 ovarian, in the test with SR leukemia, in the test with OVCAR-3 ovarian and in the test on U251 CNS was above 100 µM in each case. In addition, the TGI in the test with HL-60(TB) leukemia, in the test with MDA-MB-231 breast and in the test with UACC-257 melanoma was above 100 µM in each case.

Consider `COc1ccc(C2=CC(c3ccc(Oc4ccnc5cc(Cl)ccc45)c(OC)c3)c3c(nc(OC)[nH]c3=O)N2)cc1` (stereo not given), for which the GI50 in the test on NCI-H226 lung is 16.4 µM; in the test on OVCAR-8 ovarian it was 4.85 µM; in the test on HCC-2998 colon, above 100 µM; in the test on SR leukemia, 2.91 µM; in the test on OVCAR-3 ovarian, 6.46 µM; in the test with U251 CNS, 6.94 µM. For the same compound, the results for the GI50 in the test on HL-60(TB) leukemia, with MDA-MB-231 breast and in the test with UACC-257 melanoma were 3.51 µM, 8.62 µM and 26.4 µM, respectively. In addition, the TGI in the test with NCI-H226 lung is above 100 µM; with OVCAR-8 ovarian it was above 100 µM; in the test with HCC-2998 colon, above 100 µM; with SR leukemia it was 64.6 µM; in the test with OVCAR-3 ovarian, above 100 µM; with U251 CNS, above 100 µM. Also, the results for the TGI in the test on HL-60(TB) leukemia, in the test on MDA-MB-231 breast and with UACC-257 melanoma were 45.5 µM, above 100 µM and above 100 µM, respectively.

Regarding `O=[N+]([O-])c1cccc(/C=C/c2ccccn2)c1`, the GI50 was 33.5 µM in the test on NCI-H226 lung; 45 µM with OVCAR-8 ovarian; 44.9 µM with HCC-2998 colon; 51.6 µM in the test with SR leukemia; 12.4 µM in the test on OVCAR-3 ovarian; 6.68 µM in the test on U251 CNS. For the same compound, the GI50 was 49.9 µM in the test with HL-60(TB) leukemia, 23 µM in the test on MDA-MB-231 breast and above 100 µM in the test with UACC-257 melanoma. Further, the TGI in the test on NCI-H226 lung, with OVCAR-8 ovarian, with HCC-2998 colon, in the test with SR leukemia, in the test with OVCAR-3 ovarian and in the test on U251 CNS was above 100 µM throughout. Further, the TGI in the test on HL-60(TB) leukemia, in the test on MDA-MB-231 breast and in the test with UACC-257 melanoma was above 100 µM throughout.

Turning to `CNS(=O)(=O)c1ccccc1C(=N)c1ccccc1`, the TGI in the test on NCI-H226 lung, in the test with TK-10 renal, in the test on OVCAR-8 ovarian, in the test with SR leukemia, with OVCAR-3 ovarian and in the test on U251 CNS was above 100 µM in each case. The TGI in the test with HL-60(TB) leukemia and in the test on MDA-MB-231 breast was above 100 µM each time.

Consider `c1ccc(CCCNc2nnnc3ccccc23)cc1`, for which the TGI with NCI-H226 lung, in the test on TK-10 renal, with OVCAR-8 ovarian, in the test on SR leukemia, with OVCAR-3 ovarian and with U251 CNS was above 100 µM in each case. Moreover, the TGI in the test with HL-60(TB) leukemia, with MDA-MB-231 breast and in the test on UACC-257 melanoma was above 100 µM throughout.

For the compound `CC(C)(C)CC(C)(C)N(CSc1ccc(Cl)cc1)CSc1ccc(Cl)cc1`, the GI50 with NCI-H226 lung was 0.836 µM; in the test on OVCAR-8 ovarian it was 1.74 µM; in the test with HCC-2998 colon, 4.62 µM; in the test on SR leukemia it was 1.23 µM; in the test with OVCAR-3 ovarian, 1.78 µM; in the test on U251 CNS, 0.415 µM. Also, the GI50 in the test on HL-60(TB) leukemia is 1.75 µM; in the test with MDA-MB-231 breast, 0.486 µM; in the test with UACC-257 melanoma, 1.85 µM. Moreover, the TGI was 2.67 µM with NCI-H226 lung; 7.57 µM in the test with OVCAR-8 ovarian; 16.4 µM in the test with HCC-2998 colon; 5.51 µM in the test on SR leukemia; 4.25 µM with OVCAR-3 ovarian; 2.09 µM in the test on U251 CNS. Moreover, the TGI is 3.96 µM in the test with HL-60(TB) leukemia, 2.2 µM in the test on MDA-MB-231 breast and 6.18 µM with UACC-257 melanoma.

Regarding `O=S(=O)(CC#CCCCOCC#Cc1ccccc1C#CCS(=O)(=O)c1ccccc1)c1ccccc1`, the GI50 was 16.6 µM in the test with NCI-H226 lung; above 100 µM in the test with TK-10 renal; 16.1 µM in the test with OVCAR-8 ovarian; 4.16 µM with SR leukemia; 11.6 µM in the test on OVCAR-3 ovarian; 20.5 µM in the test with U251 CNS. For the same compound, the results for the GI50 in the test on HL-60(TB) leukemia, with MDA-MB-231 breast and with UACC-257 melanoma were 21.8 µM, 19.8 µM and 14.9 µM, respectively. The TGI in the test with NCI-H226 lung was 45.7 µM; in the test on TK-10 renal, above 100 µM; in the test with OVCAR-8 ovarian, 42 µM; in the test with SR leukemia, 21.8 µM; in the test on OVCAR-3 ovarian, 30 µM; in the test with U251 CNS it was 41 µM. The TGI in the test on HL-60(TB) leukemia was found to be 50.1 µM; in the test on MDA-MB-231 breast, 42.8 µM; in the test on UACC-257 melanoma it was 38.9 µM.

The values above are taken from PubChem BioAssay (NCI).
